Patent US20250215006A1, “TRICYCLIC COMPOUNDS AS INHIBITORS OF WRN” (Incyte Corporation, priority 2023, published 2025)

How the values were obtained:
WRN [1] = molecular target: T1, WRN (Homo sapiens, UniProt Q14191); assay: WRN ATPase activity assay (ADP-Glo); assay type: biochemical; conditions: 1-hr pre-incubation with enzyme; 100 μM ATP, 25 nM forked dsDNA, 1 nM WRN; geometric mean of at least 2 replicates
T1 construct: A His-tagged construct of WRN (AA S2-S1235) was produced and used for the ATPase assay; His; made in house; host or cells: Sf9 insect cells (baculovirus, pFastBac1)
T1 sequence (Q14191 2-1235): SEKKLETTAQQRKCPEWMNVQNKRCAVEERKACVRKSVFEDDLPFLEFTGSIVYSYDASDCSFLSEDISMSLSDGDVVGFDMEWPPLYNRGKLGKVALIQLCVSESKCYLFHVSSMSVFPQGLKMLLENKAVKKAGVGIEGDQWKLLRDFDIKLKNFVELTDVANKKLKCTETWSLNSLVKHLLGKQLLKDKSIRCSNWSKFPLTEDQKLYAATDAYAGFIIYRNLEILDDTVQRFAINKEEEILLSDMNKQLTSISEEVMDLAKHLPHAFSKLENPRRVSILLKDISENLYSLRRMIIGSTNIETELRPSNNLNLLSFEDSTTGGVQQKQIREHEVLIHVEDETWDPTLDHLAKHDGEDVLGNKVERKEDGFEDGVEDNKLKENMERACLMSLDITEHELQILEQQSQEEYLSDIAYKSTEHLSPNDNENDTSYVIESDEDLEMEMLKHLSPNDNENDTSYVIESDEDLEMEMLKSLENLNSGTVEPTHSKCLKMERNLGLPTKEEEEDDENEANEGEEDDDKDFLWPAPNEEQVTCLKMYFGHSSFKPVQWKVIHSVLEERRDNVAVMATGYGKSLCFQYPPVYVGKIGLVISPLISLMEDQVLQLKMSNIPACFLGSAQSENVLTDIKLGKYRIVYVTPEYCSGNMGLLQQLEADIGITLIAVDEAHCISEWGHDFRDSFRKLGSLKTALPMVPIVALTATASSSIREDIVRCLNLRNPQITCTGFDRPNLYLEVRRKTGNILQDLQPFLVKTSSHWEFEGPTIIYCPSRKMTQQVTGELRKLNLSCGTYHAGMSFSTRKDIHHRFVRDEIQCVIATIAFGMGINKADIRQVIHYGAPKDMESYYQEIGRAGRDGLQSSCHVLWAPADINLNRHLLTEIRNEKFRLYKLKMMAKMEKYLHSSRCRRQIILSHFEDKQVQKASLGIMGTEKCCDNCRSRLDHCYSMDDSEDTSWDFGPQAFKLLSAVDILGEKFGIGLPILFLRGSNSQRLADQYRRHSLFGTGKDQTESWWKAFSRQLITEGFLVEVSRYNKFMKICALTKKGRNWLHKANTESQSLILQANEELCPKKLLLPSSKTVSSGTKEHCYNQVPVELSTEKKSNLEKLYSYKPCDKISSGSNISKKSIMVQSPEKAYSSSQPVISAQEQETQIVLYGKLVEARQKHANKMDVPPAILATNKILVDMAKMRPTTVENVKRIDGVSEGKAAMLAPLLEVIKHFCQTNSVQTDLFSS
Procedure: Compounds of the Examples were tested for WRN ATPase activity. WRN ATPase activity catalyzes ATP hydrolysis to produce ADP and phosphate. DNA encoding the target protein, 6×HIS-TEV-WRN-517-945, was produced, cloned and transfected as detailed in Example D. The amount of ADP produced was measured using ADP-Glo™ Kinase Assay kit from Promega Corporation in a Greiner white regular volume 384 wells assay plate (Greiner #781075). Data was normalized to a standard curve generated using various ADP concentrations and the corresponding luminescent signal intensities at each concentration. The assay conditions were optimized for enzyme concentration (WRN), substrate concentrations (ATP & dsDNA), and the linearity of the ATPase reaction, in the following assay buffer: 50 mM Tris-HCl, pH-7.5, 2 mM MgCl2, 50 mM NaCl, 1 mM EGTA, 0.01% P-20, 0.05% BSA, and 2 mM DTT prepared with nuclease free water.
A serial dilution (1:3 scheme) of the compounds were prepared in neat DMSO, with 100 nL of the compounds dispensed in the 384 wells assay plate. An 1-hr pre-incubation of the compounds with enzyme was included. A His-tagged construct of WRN (AA S2-S1235) was produced and used for the ATPase assay. Maximum inhibition control wells were set up with the addition of only assay buffer, and no inhibition control wells were set up with neat DMSO without test compounds. The reaction was initiated by addition of 5 μL substrate mix (200 μM ultrapure ATP, and 50 nM dsDNA prepared in assay buffer) and incubated at 25° C. for 35 min. A forked dsDNA oligomer substrate was prepared by annealing equal amounts of oligo GPat-1 ([BHQ2][…]) and oligo GPat-2 ([…][TAM]) and was used as dsDNA substrate for WRN ATPase assay. A typical ATPase reaction consists of 25 nM forked dsDNA, 100 μM ATP, and 1 nM WRN prepared in assay buffer. The WRN ATPase reaction was stopped by the addition of 5 μL of ADP-Glo Reagent from ADP-Glo™ Kinase Assay kit and incubated for 40 min to deplete the unreacted ATP. Afterwards, 5 μL of Kinase Detection Reagent from the ADP-Glo™ Kinase Assay kit was added and incubated for 1 hr for the development of luminescence signal.
Luminesce signals were measured on BMG PHERAstar FSX using luminescence protocol. Data analysis was carried out using Genedata software following % of control normalization. Fitting parameters include dose response IC50, Hill slope (n), maximum inhibition (S∞), and minimum inhibition (S0). The reported IC50 values for compounds in this invention are the geometric means of at least 2 independent replicates.

WRN [2] = molecular target: T1, WRN; assay: WRN Helicase activity assay (fluorescence DNA unwinding); assay type: biochemical; conditions: 1-hr pre-incubation with enzyme; 100 μM ATP, 25 nM forked dsDNA, 1 nM WRN; geometric mean of at least 2 replicates
Procedure: Compounds of the examples were tested for WRN helicase activity. DNA encoding the target protein, 6×HIS-TEV-WRN-517-945, was produced, cloned and transfected as detailed in Example D. To determine the inhibitory properties of the compounds, a 384 wells plate-based Helicase assay was set up to measure the extent of DNA unwinding (Helicase) activity of WRN. The WRN Helicase assay was designed to measure increase in fluorescence signal using a fluorescence based, donor-quencher paired forked dsDNA oligomer substrate (custom synthesis from Sigma-Aldrich) prepared by annealing equal amounts of oligo GPat-1 ([BHQ2][…]) and oligo GPat-2 ([…][TAM]). Continuous measurement of fluorescent signal was used to optimize the buffer conditions, concentration of enzyme (WRN), concentration of substrates (ATP & dsDNA), and the linearity of the Helicase reaction. All solutions were prepared in the following assay buffer: 50 mM Tris-HCl, pH-7.5, 2 mM MgCl2, 50 mM NaCl, 1 mM EGTA, 0.01% P-20, 0.05% BSA, and 2 mM DTT prepared with nuclease free water.
A serial dilution (1:3 scheme) of the compounds was prepared in neat DMSO and 100 nL of the compounds was dispensed in the Greiner black low volume (Greiner #784076) 384 wells assay plate. An 1-hr pre-incubation of the compounds with enzyme was included. A His-tagged construct of WRN (AA S2-S1235) was produced and used for the ATPase assay. Maximum inhibition control wells were set up with the addition of only assay buffer, and no inhibition control wells were set up with neat DMSO without test compounds. The reaction was initiated by addition of 5 μL substrate mix (200 μM ultrapure ATP, and 50 nM dsDNA prepared in assay buffer) and incubated at 25° C. for 35 min. A typical Helicase reaction consists of 25 nM forked dsDNA, 100 μM ATP, and 1 nM WRN prepared in assay buffer. The WRN Helicase reaction was quenched by the addition of 5 μL ‘STOP’ solution containing 100 mM EDTA (final EDTA concentration 33.33 mM) prepared in assay buffer. The plates were read on BMG PHERAstar FSX using 540/590 module to measure an increase of fluorescence. Data analysis was carried out using the Genedata software following % of control normalization. Fitting parameters include dose response IC50, Hill slope (n), maximum inhibition (S∞), and minimum inhibition (S0). The reported IC50 values for compounds in this invention are the geometric means of at least 2 independent replicates.

SMILES | IC50 (WRN [1]) [nM] | IC50 (WRN [2]) [nM]
C=CC(=O)Nc1nn(C)cc1-c1c(CC)nc2n(CC(=O)Nc3ccc(C(F)(F)F)cc3)c3ccccc3n2c1=O [Example 16, N-(4-(2-Ethyl-4-oxo-10-(2-oxo-2-((4-(trifluoromethyl)phenyl)amino)ethyl)-4,10-dihydrobenzo[4,5]imidazo[1,2-a]pyrimidin-3-yl)-1-methyl-1H-pyrazol-3-yl)acrylamide] | 1000 to 5000 | 5000 to 20000
C=CC(=O)Nc1ccccc1-c1c(CC)nc2n(CC(=O)Nc3ccc(F)c(F)c3)c3cc(OC)ccc3n2c1=O [Example 17, N-(2-(10-(2-((3,4-Difluorophenyl)amino)-2-oxoethyl)-2-ethyl-8-methoxy-4-oxo-4,10-dihydrobenzo[4,5]imidazo[1,2-a]pyrimidin-3-yl)phenyl)acrylamide] | 100 to 500 | 100 to 500
C=CC(=O)Nc1ccccc1-c1c(CC)nc2n(CC(=O)Nc3ccc(C(F)(F)F)cc3)c3ncccc3n2c1=O [Example 20, N-(2-(8-Ethyl-6-oxo-10-(2-oxo-2-((4-(trifluoromethyl)phenyl)amino)ethyl)-6,10-dihydropyrido[2′,3′: 4,5]imidazo[1,2-a]pyrimidin-7-yl)phenyl)acrylamide] | 100 to 500 | 100 to 500
C=CS(=O)(=O)Nc1ccccc1-c1c(CC)nc2n(CC(=O)Nc3ccc(C(F)(F)F)cc3)c3ccccc3n2c1=O [Example 21, 2-(2-Ethyl-4-oxo-3-(2-(vinylsulfonamido)phenyl)benzo[4,5]imidazo[1,2-a]pyrimidin-10(4H)-yl)-N-(4-(trifluoromethyl)phenyl)acetamide] | < 100 | < 100
C=CC(=O)Nc1ccccc1-c1c(CC)nc2n(CC(=O)Nc3ccc(C(F)(F)F)cc3)c3c(n2c1=O)CCCC3 [Example 22, N-(2-(2-ethyl-4-oxo-10-(2-oxo-2-((4-(trifluoromethyl)phenyl)amino)ethyl)-4,6,7,8,9,10-hexahydrobenzo[4,5]imidazo[1,2-a]pyrimidin-3-yl)phenyl)acrylamide] | < 100 | < 100
C=CS(=O)(=O)Nc1ccccc1-c1c(CC)nc2n(CC(=O)Nc3ccc(C(F)(F)F)cc3)c3c(n2c1=O)CCCC3 [Example 23, 2-(2-Ethyl-4-oxo-3-(2-(vinylsulfonamido)phenyl)-6,7,8,9-tetrahydrobenzo[4,5]imidazo[1,2-a]pyrimidin-10(4H)-yl)-N-(4-(trifluoromethyl)phenyl)acetamide] | < 100 | < 100
C=CS(=O)(=O)Nc1ccccc1-c1c(CC)c(C#N)c2n(CC(=O)Nc3ccc(C(F)(F)F)cc3)c3ccccc3n2c1=O [Example 24, 2-(4-Cyano-3-ethyl-1-oxo-2-(2-(vinylsulfonamido)phenyl)benzo[4,5]imidazo[1,2-a]pyridin-5(1H)-yl)-N-(4-(trifluoromethyl)phenyl)acetamide] | 100 to 500 | 100 to 500
C=CC(=O)Nc1ccccc1-c1c(CC)c(C#N)c2n(CC(=O)Nc3ccc(C(F)(F)F)cc3)c3ccccc3n2c1=O [Example 25, N-(2-(4-Cyano-3-ethyl-1-oxo-5-(2-oxo-2-((4-(trifluoromethyl)phenyl)amino)ethyl)-1,5-dihydrobenzo[4,5]imidazo[1,2-a]pyridin-2-yl)phenyl)acrylamide] | 100 to 500 | 100 to 500
C=CC(=O)Nc1ccccc1-c1c(CC)cc2n(CC(=O)Nc3ccc(C(F)(F)F)cc3)c3ccccc3n2c1=O [Example 26, N-(2-(3-Ethyl-1-oxo-5-(2-oxo-2-((4-(trifluoromethyl)phenyl)amino)ethyl)-1,5-dihydrobenzo[4,5]imidazo[1,2-a]pyridin-2-yl)phenyl)acrylamide] | 100 to 500 | < 100

Results, then the molecule that gave them:

IC50 (WRN [1]) [nM] | IC50 (WRN [2]) [nM] | SMILES
100 to 500 | 100 to 500 | C=CC(=O)Nc1ccc(C(=O)NCCO)cc1-c1c(CC)nc2n(CC(=O)Nc3ccc(F)cc3)c3ccccc3n2c1=O [Example 12, 4-Acrylamido-3-(2-ethyl-10-(2-((4-fluorophenyl)amino)-2-oxoethyl)-4-oxo-4,10-dihydrobenzo[4,5]imidazo[1,2-a]pyrimidin-3-yl)-N-(2-hydroxyethyl) benzamide]
100 to 500 | 100 to 500 | C=CC(=O)Nc1ccc(C(=O)NCCOC)cc1-c1c(CC)nc2n(CC(=O)Nc3ccc(F)cc3)c3ccccc3n2c1=O [Example 13, 4-Acrylamido-3-(2-ethyl-10-(2-((4-fluorophenyl)amino)-2-oxoethyl)-4-oxo-4,10-dihydrobenzo[4,5]imidazo[1,2-a]pyrimidin-3-yl)-N-(2-methoxyethyl) benzamide]
100 to 500 | 100 to 500 | C=CC(=O)Nc1ccc(C(=O)N2CC3CC3(O)C2)cc1-c1c(CC)nc2n(CC(=O)Nc3ccc(F)cc3)c3ccccc3n2c1=O (stereo not drawn) [Example 14, N-(2-(2-Ethyl-10-(2-((4-fluorophenyl)amino)-2-oxoethyl)-4-oxo-4,10-dihydrobenzo[4,5]imidazo[1,2-a]pyrimidin-3-yl)-4-(1-hydroxy-3-azabicyclo[3.1.0]hexane-3-carbonyl)phenyl) acrylamide]
< 100 | < 100 | C=CC(=O)Nc1cc(C#N)ccc1-c1c(CC)nc2n(CC(=O)Nc3ccc(C(F)(F)F)cc3)c3ccccc3n2c1=O [Example 15, N-(5-Cyano-2-(2-ethyl-4-oxo-10-(2-oxo-2-((4-(trifluoromethyl)phenyl)amino)ethyl)-4,10-dihydrobenzo[4,5]imidazo[1,2-a]pyrimidin-3-yl)phenyl)acrylamide]
1000 to 5000 | 5000 to 20000 | C=CC(=O)Nc1ccccc1-c1c(CC)nc2n(CC(=O)Nc3ccc(F)cc3)c3cc(C)c(C)cc3n2c1=O [Example 18, N-(2-(2-Ethyl-10-(2-((4-fluorophenyl)amino)-2-oxoethyl)-7,8-dimethyl-4-oxo-4,10-dihydrobenzo[4,5]imidazo[1,2-a]pyrimidin-3-yl)phenyl)acrylamide]
< 100 | < 100 | C=CC(=O)Nc1ccccc1-c1c(CC)nc2n(CC(=O)Nc3ccc(C(F)(F)F)cc3)c3c(OC)cccc3n2c1=O [Example 19, N-(2-(2-Ethyl-9-methoxy-4-oxo-10-(2-oxo-2-((4-(trifluoromethyl)phenyl)amino)ethyl)-4,10-dihydrobenzo[4,5]imidazo[1,2-a]pyrimidin-3-yl)phenyl)acrylamide]
